In PMC11467302, “Discovery of a potent, Kv7.3-selective potassium channel opener from a Polynesian traditional botanical anticonvulsant” (Communications Chemistry, 2024):
pEC50: −log10 of the molar value.

Tests used:
Type in all cases: cell-based
Kv7.3* = target: T1, Kv7.3* (Homo sapiens, UniProt O43525, A315T); assay: two-electrode voltage clamp, shift of V0.5act, dose response
T1 construct: gene KCNQ3; Kv7.3* homomer expressed in Xenopus oocytes
T1 sequence (O43525 1-872 A315T): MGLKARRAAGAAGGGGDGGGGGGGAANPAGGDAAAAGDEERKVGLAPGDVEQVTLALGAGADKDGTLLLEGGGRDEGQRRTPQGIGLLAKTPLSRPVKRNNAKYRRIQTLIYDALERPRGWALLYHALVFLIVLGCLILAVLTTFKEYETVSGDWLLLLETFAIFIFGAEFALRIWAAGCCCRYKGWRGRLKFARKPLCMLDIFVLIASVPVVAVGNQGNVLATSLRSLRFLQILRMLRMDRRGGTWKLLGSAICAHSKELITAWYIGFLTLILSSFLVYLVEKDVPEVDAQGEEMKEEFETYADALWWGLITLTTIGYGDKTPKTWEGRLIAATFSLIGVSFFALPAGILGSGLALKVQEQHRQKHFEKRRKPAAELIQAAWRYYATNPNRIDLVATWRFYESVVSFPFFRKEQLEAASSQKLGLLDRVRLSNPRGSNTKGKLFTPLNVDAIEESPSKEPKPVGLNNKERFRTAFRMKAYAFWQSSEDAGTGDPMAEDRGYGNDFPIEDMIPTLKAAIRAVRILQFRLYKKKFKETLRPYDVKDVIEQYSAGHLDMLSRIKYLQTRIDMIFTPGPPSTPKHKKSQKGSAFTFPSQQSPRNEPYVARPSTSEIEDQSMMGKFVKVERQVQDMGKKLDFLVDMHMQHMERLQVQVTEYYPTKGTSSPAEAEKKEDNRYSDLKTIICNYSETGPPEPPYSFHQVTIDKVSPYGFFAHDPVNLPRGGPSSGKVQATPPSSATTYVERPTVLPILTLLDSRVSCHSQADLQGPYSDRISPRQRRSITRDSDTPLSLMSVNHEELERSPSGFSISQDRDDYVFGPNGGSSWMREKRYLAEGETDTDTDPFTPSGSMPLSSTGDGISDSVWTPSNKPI

Kv7.3 [1] = target: T2, Kv7.3 (Homo sapiens, UniProt O43525); assay: as above
T2 construct: gene KCNQ3; Kv7.2/3 heteromer expressed in Xenopus oocytes; with Kv7.2 (KCNQ2)
T2 sequence (O43525 whole entry): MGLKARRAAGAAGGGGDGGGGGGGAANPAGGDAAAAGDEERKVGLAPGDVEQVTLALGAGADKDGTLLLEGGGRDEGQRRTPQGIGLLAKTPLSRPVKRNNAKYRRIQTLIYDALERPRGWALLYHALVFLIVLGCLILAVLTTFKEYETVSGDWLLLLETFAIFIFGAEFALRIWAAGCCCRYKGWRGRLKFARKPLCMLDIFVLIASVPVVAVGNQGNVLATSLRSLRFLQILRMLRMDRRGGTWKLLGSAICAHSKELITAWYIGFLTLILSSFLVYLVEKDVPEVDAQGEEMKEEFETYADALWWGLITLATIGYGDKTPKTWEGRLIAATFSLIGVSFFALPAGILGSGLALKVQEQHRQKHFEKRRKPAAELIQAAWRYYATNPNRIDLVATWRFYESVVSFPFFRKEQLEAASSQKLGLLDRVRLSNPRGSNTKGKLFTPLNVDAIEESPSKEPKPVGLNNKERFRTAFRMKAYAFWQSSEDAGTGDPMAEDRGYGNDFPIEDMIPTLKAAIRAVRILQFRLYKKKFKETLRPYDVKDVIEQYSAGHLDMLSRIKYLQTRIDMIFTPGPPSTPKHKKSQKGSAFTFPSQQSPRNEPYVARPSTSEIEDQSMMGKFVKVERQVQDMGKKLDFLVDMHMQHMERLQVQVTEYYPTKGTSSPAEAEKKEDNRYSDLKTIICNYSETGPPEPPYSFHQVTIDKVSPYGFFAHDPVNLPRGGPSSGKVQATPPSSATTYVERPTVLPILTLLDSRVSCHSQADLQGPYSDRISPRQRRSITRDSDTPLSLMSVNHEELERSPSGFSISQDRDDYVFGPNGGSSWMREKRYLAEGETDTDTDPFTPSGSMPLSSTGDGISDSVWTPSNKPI
T2 sequence (O43526 whole entry partner): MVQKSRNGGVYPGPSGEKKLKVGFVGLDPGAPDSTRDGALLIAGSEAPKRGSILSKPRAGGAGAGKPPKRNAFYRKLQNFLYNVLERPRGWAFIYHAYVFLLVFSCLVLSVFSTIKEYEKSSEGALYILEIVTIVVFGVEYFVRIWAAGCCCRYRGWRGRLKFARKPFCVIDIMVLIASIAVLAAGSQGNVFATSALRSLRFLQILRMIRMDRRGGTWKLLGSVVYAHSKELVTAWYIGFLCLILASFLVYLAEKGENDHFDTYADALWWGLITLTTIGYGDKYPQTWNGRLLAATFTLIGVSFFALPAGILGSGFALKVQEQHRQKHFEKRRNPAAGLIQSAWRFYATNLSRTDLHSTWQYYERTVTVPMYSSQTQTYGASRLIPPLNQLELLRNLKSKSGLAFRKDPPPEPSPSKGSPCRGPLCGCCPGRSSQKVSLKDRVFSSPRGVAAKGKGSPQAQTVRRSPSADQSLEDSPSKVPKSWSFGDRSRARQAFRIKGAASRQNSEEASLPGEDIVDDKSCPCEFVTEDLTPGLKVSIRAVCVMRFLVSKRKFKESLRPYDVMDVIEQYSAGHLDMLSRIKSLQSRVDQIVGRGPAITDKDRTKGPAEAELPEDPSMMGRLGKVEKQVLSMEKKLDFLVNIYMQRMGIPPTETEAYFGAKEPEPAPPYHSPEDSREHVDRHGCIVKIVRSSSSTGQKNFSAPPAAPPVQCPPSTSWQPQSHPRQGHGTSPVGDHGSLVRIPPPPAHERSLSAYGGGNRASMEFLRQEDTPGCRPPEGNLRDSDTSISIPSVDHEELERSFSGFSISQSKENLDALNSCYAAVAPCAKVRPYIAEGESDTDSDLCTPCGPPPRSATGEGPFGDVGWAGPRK

Kv7.3 [2] = target: T2, Kv7.3; assay: two-electrode voltage clamp at […], shift of V0.5act

Compound	pEC50 (Kv7.3*)	pEC50 (Kv7.3 [1])	two-electrode voltage clamp at 100 μM, shift of V0.5act (Kv7.3 [2])
O=C(O)c1cc(O)ccc1O [GA, gentisic acid]	9.10	8.55	–
O=S(=O)(O)c1cc(O)ccc1O [calcium dobesilate]	–	–	one analog of GA did exhibit similar efficacy to that of GA—the sulfonic acid, calcium dobesilate
